Experiments:
[1] = tested on: Staphylococcus aureus DSM 11729; assay: Antibacterial testing (CFU/ml count, with and without white light); format: cell-based; details: for antibacterial activity in the presence of complex media (serum addition): PBS supplemented with 10% horse blood serum; for antibacterial activity in the presence of complex media (serum addition) / antibacterial activity of compounds which carry just one bromine atom: bacterium not given; for antibacterial activity against S. aureus in the absence of light: highest tested concentration of 100 μmol
Method: The organisms studied were Staphylococcus aureus DSM 11729, Gram-positive and Pseudomonas aeruginosa DSM 1117, Gram-negative.
Cultures cells are suspended in sterile phosphate-buffered saline (PBS) or sterile PBS supplemented with 10% sterile horse blood serum. The bacterial suspensions are placed into sterile black well plates with clear bottoms. Concentrations of photosensitizer used in the study were as follows: 100 μM, 10 μM and 1 μM.
After an incubation time period of 30 minutes, the samples are exposed to white light, with a power density and irradiation time resulting in an energy fluency of about 100 J/cm^2. Control plates contained no photosensitizer and are not exposed to laser light. The control samples for dark toxicity are only exposed to photosensitizer without any illumination.
After irradiation, the samples are removed and suspended again in the culture media. The numbers of colony-forming units (CFU/ml) are enumerated after an adequate incubation time period.

[2] = tested on: HT29 tumor cell line and other cell lines; assay: Cell tests: dark toxicity and phototoxicity, XTT cell viability assay; format: cell-based, human, mouse; details: cell tests of example 3; 2 or 10 μM
Method: The photosensitizing activity was determined in the following cell lines: • HT29 (human colon adenocarcinoma cell line) • L929 (mouse fibroblast cell line) • A431 (human epidermoid carcinoma cell line) • A253 (submaxillary salivary gland, epidermoid cell line) • CAL-27 (human tongue squamous cell carcinoma cell line) • J774A.1 (Mouse BALB/c monocyte macrophage).
The cell lines were grown in DMEM (c.c.pro GmbH) supplemented with 10% heat-inactivated fetal calf serum (FCS, c.c.pro GmbH), 1% penicillin (10000 IU) and streptomycin (10000 μg/ml, c.c.pro GmbH). Cells were kept as a monolayer culture in a humidified incubator (5% CO2 in air at 37° C.).
A photosensitizer stock solution (2 mM) was performed in DMSO and was kept in the dark at 4° C. Further dilution was performed in DMEM medium without phenol red supplemented with 10% FCS to reach a final photosensitizer concentration of 2 or 10 μM, respectively.
After seeding the cells in micro plates, the cells were incubated with fresh medium (DMEM without phenol red) containing 10% FCS with 2 or 10 μM of the photosensitizer for 24 h before light exposure. […]
The cell viability was assessed by the XTT assay. […]
The absorbance of the samples was measured with a microplate reader (infinite 200, Tecan Group Ltd.) at a wavelength of 490 nm.

| Molecule | specific activity against bacteria ([1]; compared with toxicity in cells) | toxicity in cells [2] | antibacterial activity in the presence of complex media (serum addition) [1] | antibacterial activity against S. aureus in the absence of light [1] | antibacterial activity of compounds which carry just one bromine atom [1] |
| --- | --- | --- | --- | --- | --- |
| 1,3,5,7-Tetramethyl-2,6-dibromo-8(4-propargylamino-3-nitrophenyl)-boron dipyrromethene [Example 4.5] | specifically active against bacteria | low toxicity | – | – | – |
| 1,3,5,7-Tetramethyl-2,6-dibromo-8-(4-N-hydroxy-ethylamino-3-nitrophenyl)-boron dipyrromethene [Example 4.2] | – | – | antibacterial activity is also observed | high antibacterial activity | – |
| 2-Bromo-8-(4-butyloxy-2,3,5,6-tetrafluorophenyl)-boron dipyrromethene [Example 4.11] | – | – | – | – | strong antibacterial activity |
| C#CCNc1ccc(C2=C3C=CC=[N+]3[B-](F)(F)n3cc(Br)cc32)cc1[N+](=O)[O-] [Example 4.1, 2-Bromo-8-(4-N-propargylamino-3-nitrophenyl)-boron dipyrromethene] | – | – | antibacterial activity is also observed | high antibacterial activity | strong antibacterial activity |

— US12365698B2, “Application of boron dipyrromethene derivatives in anti-tumor and anti-bacterial therapy” (biolitec Unternehmensbeteiligungs III AG, priority 2019, dated 2025)
